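Values below derive from 48-hour exposures of cells grown in 96-well plates, with endpoints linearly interpolated between the two concentrations bracketing the appropriate inhibition level. GI50 marks 50% less growth.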 The source made the active and inactive calls. No stated cut-off is given here; in the data, active = GI50 up to about 1.1 µM and inactive = higher.
Legend:
Assay in all cases: DTP human tumour cell line panel, 48 h
EKVX = test system: EKVX
A549 = test system: A549
SK-MEL-5 = test system: SK-MEL-5
UACC-62 = test system: UACC-62
SF-295 = test system: SF-295
NCI-H522 = test system: NCI-H522
MCF7 = test system: MCF7
LOX IMVI = test system: LOX IMVI
Malme-3M = test system: Malme-3M
KM12 = test system: KM12
786-0 = test system: 786-0
TK-10 = test system: TK-10
SNB-19 = test system: SNB-19
SK-MEL-28 = test system: SK-MEL-28
HOP-62 = test system: HOP-62
RPMI-8226 = test system: RPMI-8226
CCRF-CEM = test system: CCRF-CEM
T47D = test system: T47D
UACC-257 = test system: UACC-257
SF-268 = test system: SF-268

Compound | GI50 (EKVX) | GI50 (A549) | GI50 (SK-MEL-5) | GI50 (UACC-62) | GI50 (SF-295) | GI50 (NCI-H522) | GI50 (MCF7) | GI50 (LOX IMVI) | GI50 (Malme-3M) | GI50 (KM12) | GI50 (786-0) | GI50 (TK-10) | GI50 (SNB-19) | GI50 (SK-MEL-28) | GI50 (HOP-62) | GI50 (RPMI-8226) | GI50 (CCRF-CEM) | GI50 (T47D) | GI50 (UACC-257) | GI50 (SF-268)
O=C(O)CC1(CC(=O)O)Nc2ccccc2SC1=O | > 100 µM (inactive) | > 100 µM (inactive) | > 100 µM (inactive) | > 100 µM (inactive) | > 100 µM (inactive) | > 100 µM (inactive) | > 100 µM (inactive) | > 100 µM (inactive) | > 100 µM (inactive) | > 100 µM (inactive) | > 100 µM (inactive) | > 100 µM (inactive) | > 100 µM (inactive) | > 100 µM (inactive) | > 100 µM (inactive) | > 100 µM (inactive) | > 100 µM (inactive) | > 100 µM (inactive) | > 100 µM (inactive) | > 100 µM (inactive)
Cc1cc(N)c2cc(NC(=O)Nc3ccc4nc(C)cc(N)c4c3)ccc2n1 | > 100 µM (inactive) | > 100 µM (inactive) | 70.1 µM (inactive) | > 100 µM (inactive) | 89.5 µM (inactive) | > 100 µM (inactive) | > 100 µM (inactive) | > 100 µM (inactive) | > 100 µM (inactive) | > 100 µM (inactive) | > 100 µM (inactive) | > 100 µM (inactive) | > 100 µM (inactive) | > 100 µM (inactive) | 61.8 µM (inactive) | > 100 µM (inactive) | > 100 µM (inactive) | > 100 µM (inactive) | > 100 µM (inactive) | > 100 µM (inactive)
COC(=O)C(=O)C(C(=O)C(=O)Nc1ccc(Cl)c(Cl)c1)c1nc2ccc(C(=O)c3ccccc3)cc2nc1O (stereo not given) | 44.9 µM (inactive) | > 100 µM (inactive) | > 100 µM (inactive) | > 100 µM (inactive) | 49.4 µM (inactive) | 27.7 µM (inactive) | 35.2 µM (inactive) | 59.3 µM (inactive) | 73.8 µM (inactive) | 29 µM (inactive) | > 100 µM (inactive) | > 100 µM (inactive) | 45.6 µM (inactive) | 85.3 µM (inactive) | 41.6 µM (inactive) | 40.2 µM (inactive) | 46.6 µM (inactive) | 49 µM (inactive) | > 100 µM (inactive) | 51.4 µM (inactive)
CN1c2ccccc2C2=C(c3ccccc3)CC[C@@H](C(=O)N3C4CC5CC[C@@]4(CS3(=O)=O)C5(C)C)[C@@H]21 (stereo not given in full) | > 100 µM (inactive) | > 100 µM (inactive) | > 100 µM (inactive) | > 100 µM (inactive) | > 100 µM (inactive) | 92.3 µM (inactive) | > 100 µM (inactive) | > 100 µM (inactive) | > 100 µM (inactive) | > 100 µM (inactive) | > 100 µM (inactive) | > 100 µM (inactive) | > 100 µM (inactive) | > 100 µM (inactive) | > 100 µM (inactive) | > 100 µM (inactive) | > 100 µM (inactive) | > 100 µM (inactive) | > 100 µM (inactive) | > 100 µM (inactive)
O=C1NC(Nc2ccccc2Cl)=N/C1=C\c1c(Cl)cccc1Cl | 31 µM (inactive) | 30.4 µM (inactive) | 20.3 µM (inactive) | 32.1 µM (inactive) | 26.5 µM (inactive) | 18.7 µM (inactive) | 28.7 µM (inactive) | 29.4 µM (inactive) | 31.1 µM (inactive) | 23.7 µM (inactive) | 33.4 µM (inactive) | 30.9 µM (inactive) | 44.1 µM (inactive) | 51.8 µM (inactive) | 39.7 µM (inactive) | 20.6 µM (inactive) | 34.4 µM (inactive) | 28.6 µM (inactive) | 25.4 µM (inactive) | 31.1 µM (inactive)
OC1(c2ccccc2)C2CC=CC2C1(c1ccccc1)c1ccccc1 (stereo not given) | 20.5 µM (inactive) | 25.2 µM (inactive) | 17.2 µM (inactive) | 23.9 µM (inactive) | 34 µM (inactive) | 13.5 µM (inactive) | 26.4 µM (inactive) | 18 µM (inactive) | 19.5 µM (inactive) | 20.6 µM (inactive) | 61.7 µM (inactive) | 29.6 µM (inactive) | 51.3 µM (inactive) | 40.1 µM (inactive) | 70.3 µM (inactive) | 25.6 µM (inactive) | 27.8 µM (inactive) | 23.1 µM (inactive) | 27 µM (inactive) | 31 µM (inactive)
CCOC(=O)N(C)C1(c2ccccc2)CCN(CCCC(=O)c2ccc(F)cc2)CC1 | > 100 µM (inactive) | 92.3 µM (inactive) | 17.3 µM (inactive) | 42.1 µM (inactive) | 42.4 µM (inactive) | 87.9 µM (inactive) | 33.4 µM (inactive) | 20.9 µM (inactive) | 15.3 µM (inactive) | 30.5 µM (inactive) | 33 µM (inactive) | 45.3 µM (inactive) | 0.0647 µM (active) | 21 µM (inactive) | 38.5 µM (inactive) | 27.4 µM (inactive) | 31.7 µM (inactive) | 61.1 µM (inactive) | 20.3 µM (inactive) | 90.4 µM (inactive)
S=c1nc(N2CCCCC2)c2cn[nH]c2[nH]1 | > 100 µM (inactive) | 76.7 µM (inactive) | 1.53 µM (inactive) | 50.1 µM (inactive) | 59.6 µM (inactive) | 16.7 µM (inactive) | 34.6 µM (inactive) | 39.4 µM (inactive) | 64.9 µM (inactive) | 29.5 µM (inactive) | 88.5 µM (inactive) | 39.2 µM (inactive) | > 100 µM (inactive) | 65.6 µM (inactive) | > 100 µM (inactive) | 12.2 µM (inactive) | 10.4 µM (inactive) | 59.6 µM (inactive) | 98.9 µM (inactive) | 78 µM (inactive)
COc1ccc(C2CC(C)(O)Oc3cc4c(cc32)OCO4)cc1 (stereo not given) | 40.2 µM (inactive) | 30.5 µM (inactive) | 25.4 µM (inactive) | 36.9 µM (inactive) | 30.8 µM (inactive) | 11.2 µM (inactive) | 34.9 µM (inactive) | 27.2 µM (inactive) | 47.2 µM (inactive) | 27.3 µM (inactive) | 37.2 µM (inactive) | 36.1 µM (inactive) | 38.4 µM (inactive) | 45.6 µM (inactive) | 40.1 µM (inactive) | 27.4 µM (inactive) | 19.3 µM (inactive) | 2.02 µM (inactive) | 32.4 µM (inactive) | 35.8 µM (inactive)
Nc1nc(N)c2cc(-c3cc4ccccc4[nH]3)ccc2n1 | 29 µM (inactive) | 32.2 µM (inactive) | 15.2 µM (inactive) | 17.4 µM (inactive) | 27.6 µM (inactive) | 17.5 µM (inactive) | 18.1 µM (inactive) | 18.5 µM (inactive) | 16 µM (inactive) | 17.8 µM (inactive) | 22.5 µM (inactive) | 17.7 µM (inactive) | 33 µM (inactive) | 22.2 µM (inactive) | 30.8 µM (inactive) | 14.3 µM (inactive) | 35.2 µM (inactive) | 3.48 µM (inactive) | 16.2 µM (inactive) | 22.2 µM (inactive)
O=C(OCc1ccccc1)C1(N2CN(C3(C(=O)OCc4ccccc4)CCCC3)CN(C3(C(=O)OCc4ccccc4)CCCC3)C2)CCCC1 | > 10 µM (inactive) | > 10 µM (inactive) | > 10 µM (inactive) | > 10 µM (inactive) | > 10 µM (inactive) | > 10 µM (inactive) | > 10 µM (inactive) | > 10 µM (inactive) | > 10 µM (inactive) | > 10 µM (inactive) | > 10 µM (inactive) | > 10 µM (inactive) | > 10 µM (inactive) | > 10 µM (inactive) | > 10 µM (inactive) | > 10 µM (inactive) | > 10 µM (inactive) | > 10 µM (inactive) | > 10 µM (inactive) | > 10 µM (inactive)
c1ccc(/N=C2/SC(c3ccccc3)(c3ccccc3)c3ccccc32)cc1 | > 100 µM (inactive) | > 100 µM (inactive) | 57.8 µM (inactive) | > 100 µM (inactive) | > 100 µM (inactive) | > 100 µM (inactive) | 87.7 µM (inactive) | 71.6 µM (inactive) | > 100 µM (inactive) | > 100 µM (inactive) | > 100 µM (inactive) | > 100 µM (inactive) | > 100 µM (inactive) | > 100 µM (inactive) | > 100 µM (inactive) | > 100 µM (inactive) | > 100 µM (inactive) | > 100 µM (inactive) | > 100 µM (inactive) | > 100 µM (inactive)
N=C(N)SCc1ccc2c(c1)Sc1ccccc1O2 | 11.6 µM (inactive) | 6.73 µM (inactive) | 1.57 µM (inactive) | 4.62 µM (inactive) | 10.5 µM (inactive) | 1.44 µM (inactive) | 4.53 µM (inactive) | 6 µM (inactive) | 11.1 µM (inactive) | 5.32 µM (inactive) | 4.76 µM (inactive) | 5.11 µM (inactive) | 11.4 µM (inactive) | 13.6 µM (inactive) | 14.1 µM (inactive) | 8.05 µM (inactive) | 6.78 µM (inactive) | 8.07 µM (inactive) | 5.82 µM (inactive) | 13.1 µM (inactive)
NC(C(=O)O)c1cc(O)no1 (stereo not given) | > 100 µM (inactive) | > 100 µM (inactive) | > 100 µM (inactive) | > 100 µM (inactive) | > 100 µM (inactive) | > 100 µM (inactive) | > 100 µM (inactive) | > 100 µM (inactive) | > 100 µM (inactive) | > 100 µM (inactive) | > 100 µM (inactive) | > 100 µM (inactive) | > 100 µM (inactive) | > 100 µM (inactive) | > 100 µM (inactive) | > 100 µM (inactive) | > 100 µM (inactive) | > 100 µM (inactive) | > 100 µM (inactive) | > 100 µM (inactive)

Source: ChEMBL document CHEMBL1201862, “PubChem BioAssay data set” (2004)
